Assays:
[1] = tested on: MCF-10a-breast epithelial cells; assay: MTT cell proliferation assay, MCF-10a; type: cell-based, human; conditions: 24 h incubation; healthy cells
[2] = tested on: EA.hy926 endothelial cells; assay: MTT cell proliferation assay, EA.hy926; type: cell-based, human; conditions: 24 h incubation
[3] = Shake-flask water-octanol Log p; conditions: n-octanol / water containing 0.45% sodium chloride, 0.5 mM, 37 °C
Method: The complex was dissolved in a mixture with equal volumes of pre-saturated n-octanol and water to a final concentration of 0.5 mM. The mixture was shaken at 250 rpm for 24 h at 37 °C and then centrifuged at 3000 rpm for 10 min. The complex concentration (C) in each phase was measured by UV-Vis spectroscopy and used to calculate Log p, according to the formula Log p = log (Coctanol/Cwater).

EB-CTDNA adduct = assay: EB/CTDNA fluorescence competition (quenching); type: binding, calf; conditions: [DNA] 5 μM, [EB] 5 μM, complex 0-50 μM
Method: To learn more about the binding properties of 1–7 with CTDNA, the fluorescence competition technique is employed. EB is an orange fluorescent dye and an intercalating agent for DNA.
3.2 Fluorescence titration experiments
The displacement of the EB-bound was obtained by
treated with a saturating ethidium bromide 5 µM.
Figure S5. […] [DNA]= 5 µM,
[EB] = 5 µM and [complex] = 0˗50 µM. […]

[4] = molecular target: T1, Bovine serum albumin (BSA) (Bos taurus, UniProt P02769); assay: BSA fluorescence titration (Stern-Volmer, Scatchard); type: binding; conditions: for number of binding sites (n) on BSA: Scatchard equation; for BSA quenching constant Kq: [BSA] 1 μM, complex 0-20 μM, phosphate buffer pH 7.2
T1 construct: purchased Sigma Aldrich
Text: To explore the mode of complex-protein interaction, we monitor the BSA fluorescence quenching at […] by addition of increasing amounts of 1–7 to a fixed quantity of BSA (Figure S7). […] The molar absorptivity of tyrosine and phenylalanine are 10- and 200-fold weaker than tryptophan, respectively, and are ignored in the modelling. […] The complex binding-induced fluorescence quenching is described by the linear Stern–Volmer relationship (Figure 12A) to obtain the quenching constant Kq (see SI for details). Further, the equilibrium binding constant (Kb) of the complex to BSA and the number of binding sites (n) are obtained by casting the fluorescence intensity in the absence of quencher (F^0) and quencher concentration [Q] dependent F into the Scatchard equation [35]: log [(F^0− F)/F] = log Kb + n log[Q], as shown in Figure 12B.
4 Interaction of complexes with Bovine serum albumin
4.1 Fluorescence titration
The interaction of complexes with BSA was studied using fluorescence spectra, recorded at a fixed excitation wavelength corresponding to BSA at 280 nm and monitoring the emission at 335 nm. Stock solution of BSA were prepared by dissolving commercial BSA in 50mM phosphate buffer (pH 7.2) and stored at 4 οC for further use.
Concentrated stock solution of each test compound were prepared by dissolving it in DMF-phosphate buffer (5:95) and diluted with phosphate buffer to get required concentrations. For the fluorescence measurements, 2.5 mL solution of BSA was titrated with successive additions of […] stock solution of complexes (0-20 µM) […]
Figure S7. Fluorescence quenching curves of BSA in the absence and presence of complexes 1-7. […]

HepG-2-hepatic cells = assay: MTT cell proliferation assay, HepG-2; type: cell-based, human; conditions: 24 h incubation
T24 cells = assay: Flow cytometry FITC Annexin V apoptosis assay; type: cell-based, human; conditions: at IC50 concentration (1: […]; 2: 14.5 μM)
Method: Figure S10. Cytotoxic effects of complexes ( 1-7) against (A) EA.hy-926, (B) HepG-2, (C) T24, (D) normal kidney (Vero) cells
and (E) MCF-10a-breast epithelial . Data expressed in SD±mean with three replicates.
After 24 h incubation, control and treated cells were stained with acriddine
orange (AO)/ethidium bromide (EB) and incubated for 10 min. The images were taken immediately under fluorescent
8. Flow cytometry studies
The cell apoptotic rate was determined by flow cytometry analysis with the fluorescein isothiocyanate (FITC)
Annexin V apoptosis detection kit (Multi Sciences, China). T24 cancer cells were collected by trypsinization, washed
twice and resuspended in […], 1 × binding buffer with […] of FITC Annexin V and […] of PI. After incubation for
15 min, the samples were subjected to analysis by flow cytometry. The results were analysed with the BD FACS Calibur™
(1 picture or pasted object on this page, not shown here)

T24-bladder cells = assay: MTT cell proliferation assay, T24; type: cell-based, human; conditions: 24 h incubation
Vero cells = assay: MTT cell proliferation assay, Vero; type: cell-based, African green monkey; conditions: 24 h incubation; healthy cells

T1 sequence (P02769 25-607): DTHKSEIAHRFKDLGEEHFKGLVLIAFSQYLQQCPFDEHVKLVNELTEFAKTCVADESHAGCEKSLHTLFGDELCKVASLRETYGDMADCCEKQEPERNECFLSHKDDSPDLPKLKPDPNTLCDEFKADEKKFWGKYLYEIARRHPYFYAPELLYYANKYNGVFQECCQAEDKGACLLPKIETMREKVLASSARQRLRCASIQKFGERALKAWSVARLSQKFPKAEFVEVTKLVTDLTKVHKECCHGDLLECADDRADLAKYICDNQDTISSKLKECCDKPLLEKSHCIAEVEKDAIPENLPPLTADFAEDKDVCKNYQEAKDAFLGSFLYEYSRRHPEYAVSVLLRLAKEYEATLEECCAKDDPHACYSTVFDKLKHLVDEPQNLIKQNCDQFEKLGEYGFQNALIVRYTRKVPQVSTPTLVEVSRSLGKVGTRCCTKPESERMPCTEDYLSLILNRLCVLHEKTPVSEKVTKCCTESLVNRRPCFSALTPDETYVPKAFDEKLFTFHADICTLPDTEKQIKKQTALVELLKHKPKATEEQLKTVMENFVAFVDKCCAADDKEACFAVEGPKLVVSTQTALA

For Cc1ccc(C(C)C)cc1.O=C(O)c1ccnc(-c2cc(C(=O)O)ccn2)c1.[Cl-].[Cl-].[Ru+2] [Complex 2, [Ru-η^6-p-cymene-(4,4′-(COOH)2bipy)Cl]Cl], the IC50 [1] was over 50 µM, the IC50 [2] was over 50 µM and the “Log p Exp. Shake Flask” value [3] was −1.65. The “Stern–Volmer quenching constant Kq (EB/CTDNA)” value (EB-CTDNA adduct) was 4.89 10^4 M^−1, the “number of binding sites (n) on BSA” value [4] was 1.2 and the “BSA quenching constant Kq” value [4] was 6.446 × 10^4 10^4 M^−1. For the same compound, the IC50 (HepG-2-hepatic cells) was over 50 µM, the “apoptotic rate (late + early)” value (T24 cells) was 18.24% and the “early apoptosis (Q3)” value (T24 cells) was 10.9%. The “late apoptosis (Q2)” value (T24 cells) was 7.34%, the solubility (Solubility (observation)) was “more soluble in high polar organic solvents” and the IC50 (T24-bladder cells) was 14.5 µM. It also gave an IC50 (Vero cells) of over 50 µM.

In the case of CC(C)(C)c1ccnc(-c2cc(C(C)(C)C)ccn2)c1.[Cl-].[Cl-].[Ru+2].c1ccccc1 [Complex 5, [Ru-η^6-benzene-(4,4′-(C4H9)2bipy)Cl]Cl], the “Log p Exp. Shake Flask” value [3] is reported as 2.45.

With COC(=O)c1ccnc(-c2cc(C(=O)OC)ccn2)c1.[Cl-].[Cl-].[Ru+2].c1ccccc1 [Complex 6, [Ru-η^6-benzene-(4,4′-(COOCH3)2bipy)Cl]Cl] the IC50 [1] was over 50 µM, the IC50 [2] was 49.3 µM and the “Log p Exp. Shake Flask” value [3] was −1.12. The “Stern–Volmer quenching constant Kq (EB/CTDNA)” value (EB-CTDNA adduct) was 6.69 10^4 M^−1, the “apparent DNA binding constant Kapp” value (EB-CTDNA adduct) was 3.34 10^6 M^−1 and the “number of binding sites (n) on BSA” value [4] was 1.0. For the same compound, the “BSA quenching constant Kq” value [4] was 3.103 × 10^4 10^4 M^−1, the IC50 (HepG-2-hepatic cells) was 14.5 µM and the IC50 (T24-bladder cells) was 41.2 µM. For the same compound, the IC50 (Vero cells) was 49.2 µM.

Work on N.N.[Cl][Pt][Cl] [Cisplatin, reference compound] yielded an IC50 [1] of 29.1 µM, an IC50 [2] of 22.9 µM and an IC50 (HepG-2-hepatic cells) of 49.1 µM. For the same compound, the IC50 (T24-bladder cells) was over 50 µM and the IC50 (Vero cells) was 33.7 µM.

For CCOC(=O)c1ccnc(-c2cc(C(=O)OCC)ccn2)c1.Cc1ccc(C(C)C)cc1.[Cl-].[Cl-].[Ru+2] [Complex 4, [Ru-η^6-p-cymene-(4,4′-(COOC2H5)2bipy)Cl]Cl], the IC50 [1] was 40.1 µM, the IC50 [2] was 32.3 µM and the “Log p Exp. Shake Flask” value [3] was 0.88. The “Stern–Volmer quenching constant Kq (EB/CTDNA)” value (EB-CTDNA adduct) was 6.36 10^4 M^−1, the “apparent DNA binding constant Kapp” value (EB-CTDNA adduct) was 3.18 10^6 M^−1 and the “number of binding sites (n) on BSA” value [4] was 1.0. The “BSA quenching constant Kq” value [4] was 3.777 × 10^4 10^4 M^−1, the IC50 (HepG-2-hepatic cells) was 21.1 µM and the IC50 (T24-bladder cells) was 12.3 µM. The IC50 (Vero cells) was 31.2 µM.

In the case of COC(=O)c1ccnc(-c2cc(C(=O)OC)ccn2)c1.Cc1ccc(C(C)C)cc1.[Cl-].[Cl-].[Ru+2] [Complex 3, [Ru-η^6-p-cymene-(4,4′-(COOCH3)2bipy)Cl]Cl], the IC50 [1] is reported as over 50 µM, the IC50 [2] is reported as 30.8 µM and the “Stern–Volmer quenching constant Kq (EB/CTDNA)” value (EB-CTDNA adduct) is reported as 6.05 10^4 M^−1. The “apparent DNA binding constant Kapp” value (EB-CTDNA adduct) was 3.02 10^6 M^−1, the “number of binding sites (n) on BSA” value [4] was 1.0 and the “BSA quenching constant Kq” value [4] was 3.622 × 10^4 10^4 M^−1. It also gave an IC50 (HepG-2-hepatic cells) of over 50 µM, an IC50 (T24-bladder cells) of 21.2 µM and an IC50 (Vero cells) of 45.6 µM.

With CCOC(=O)c1ccnc(-c2cc(C(=O)OCC)ccn2)c1.[Cl-].[Cl-].[Ru+2].c1ccccc1 [Complex 7, [Ru-η^6-benzene-(4,4′-(COOC2H5)2bipy)Cl]Cl] the IC50 [1] was over 50 µM, the IC50 [2] was 23.8 µM and the “Log p Exp. Shake Flask” value [3] was −0.14. For the same compound, the “Stern–Volmer quenching constant Kq (EB/CTDNA)” value (EB-CTDNA adduct) was 7.21 10^4 M^−1, the “apparent DNA binding constant Kapp” value (EB-CTDNA adduct) was 3.61 10^6 M^−1 and the “number of binding sites (n) on BSA” value [4] was 1.1. For the same compound, the “BSA quenching constant Kq” value [4] was 4.779 × 10^4 10^4 M^−1, the IC50 (HepG-2-hepatic cells) was 41.6 µM and the IC50 (T24-bladder cells) was 19.8 µM. It also gave an IC50 (Vero cells) of 33.9 µM.
